Here are results for 21 compounds from EP4755888A1 (ILAb Co., Ltd., priority 2023, dated 2025).

The assay has as its target PD-1/PD-L1 (Homo sapiens, UniProt Q9NZQ7). As to the kind of experiment: TR-FRET PD-1/PD-L1 binding inhibition at the molecular level (free proteins). The conditions noted are these: Tag1-PD-L1 and Tag2-PD-1 proteins, twelve concentrations from 200 nM, 2 hours at room temperature, read-out: FRET assay (IC50). In short, it runs like this: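 HTRF read-out at 665/620 nm after 2 h at room temperature. Detection used anti-Tag1 Eu cryptate plus anti-Tag2 XL665 antibodies. Tagged PD-L1 and PD-1 proteins were pre-mixed with compound across twelve […] 1:2 dilutions starting at 200 nM.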
Background: In TR-FRET formats the signal depends on donor and acceptor labels being close together.

Chain of PD-1/PD-L1 (Q9NZQ7 19-238 limits assumed): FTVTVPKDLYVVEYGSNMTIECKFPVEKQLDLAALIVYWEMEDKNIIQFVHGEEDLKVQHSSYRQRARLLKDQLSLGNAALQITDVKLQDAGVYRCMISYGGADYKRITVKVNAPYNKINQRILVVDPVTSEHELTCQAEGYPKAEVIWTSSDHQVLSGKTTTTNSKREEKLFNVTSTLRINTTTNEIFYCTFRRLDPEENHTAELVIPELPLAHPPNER

Regarding `O=C(Nc1cccc(-c2cccc(Nc3nc(C(F)F)nc4cccnc34)c2Cl)c1Cl)c1cc2n(n1)CCC[C@@H]2N1CCC(O)CC1` [Compound 305, (S)-N-(2,2'-dichloro-3'-((2-(difluoromethyl)pyrido[3,2-d]pyrimidin-4-yl)amino)-[1,1'-biphenyl]-3-yl)-4-(4-hydroxypiperidin-1-yl)-4,5,6,7-tetrahydropyrazolo[1,5-a]pyridine-2-carboxamide], the IC50 is 10 to 100 nM.

`Cn1c(C(=O)Nc2cccc(-c3cccc(NC(=O)c4cc5n(n4)CCC[C@@H]5N4CC[C@@H](C(=O)O)C4)c3Cl)c2Cl)nc2c1CCN(CCC13CCC(C(=O)O)(CC1)C3)C2` [Compound 307, (R)-1-((S)-2-((3'-(5-(2-(4-carboxybicyclo[2.2.1]heptan-1-yl)ethyl)-1-methyl-4,5,6,7-tetrahydro-1H-imidazo[4,5-c]pyridine-2-carboxamido)-2,2'-dichloro-[1,1'-biphenyl]-3-yl)carbamoyl)-4,5,6,7-tetrahydropyrazolo[1,5-a]pyridin-4-yl)pyrrolidine-3-carboxylic acid]: the IC50 is less than 10 nM. For the compound `Cn1c(C(=O)Nc2cccc(-c3cccc(NC(=O)c4cc5n(n4)CCC[C@H]5N4CC[C@@H](C(=O)O)C4)c3Cl)c2Cl)nc2c1CCN(CCC13CCC(C(=O)O)(CC1)C3)C2` [Compound 308, (R)-1-((R)-2-((3'-(5-(2-(4-carboxybicyclo[2.2.1]heptan-1-yl)ethyl)-1-methyl-4,5,6,7-tetrahydro-1H-imidazo[4,5-c]pyridine-2-carboxamido)-2,2'-dichloro-[1,1'-biphenyl]-3-yl)carbamoyl)-4,5,6,7-tetrahydropyrazolo[1,5-a]pyridin-4-yl)pyrrolidine-3-carboxylic acid], the IC50 is less than 10 nM. In the case of `Cc1c(NC(=O)c2ccc(CN3CC[C@@H](O)C3)cn2)cccc1-c1cccc(NC(=O)c2cc3n(n2)CCC[C@@H]3N2CCCC[C@@H]2CO)c1C` [Compound 309, (S)-4-((R)-2-(hydroxymethyl)piperidin-1-yl)-N-(3'-(5-(((R)-3-hydroxypyrrolidin-1-yl)methyl)picolinamido)-2,2'-dimethyl-[1,1'-biphenyl]-3-yl)-4,5,6,7-tetrahydropyrazolo[1,5-a]pyridine-2-carboxamide], the IC50 was less than 10 nM. To `Cc1c(NC(=O)c2ccc(CN3CC[C@@H](O)C3)cn2)cccc1-c1cccc(NC(=O)c2cc3n(n2)CCC[C@H]3N2CCCC[C@@H]2CO)c1C` [Compound 309-1, (R)-4-((R)-2-(hydroxymethyl)piperidin-1-yl)-N-(3'-(5-(((R)-3-hydroxypyrrolidin-1-yl)methyl)picolinamido)-2,2'-dimethyl-[1,1'-biphenyl]-3-yl)-4,5,6,7-tetrahydropyrazolo[1,5-a]pyridine-2-carboxamide] belongs 10 to 100 nM; to `Cc1c(NC(=O)c2ccc(CN3CC[C@@H](O)C3)cn2)cccc1-c1cccc(NC(=O)c2cc3n(n2)CCC[C@@H]3N2CCC[C@@H]2CO)c1C` [Compound 310, (S)-4-((R)-2-(hydroxymethyl)pyrrolidin-1-yl)-N-(3'-(5-(((R)-3-hydroxypyrrolidin-1-yl)methyl)picolinamido)-2,2'-dimethyl-[1,1'-biphenyl]-3-yl)-4,5,6,7-tetrahydropyrazolo[1,5-a]pyridine-2-carboxamide], less than 10 nM. Then `Cc1c(NC(=O)c2ccc(CN3CC[C@@H](O)C3)cn2)cccc1-c1cccc(NC(=O)c2cc3n(n2)CCC[C@H]3N2CCC[C@@H]2CO)c1C` [Compound 310-1], with less than 10 nM; and `CN(C)[C@H]1CCCn2nc(C(=O)Nc3cccc(-c4cccc(NC(=O)c5cc6n(n5)CCC[C@@H]6N(C)C)c4Cl)c3Cl)cc21` [Compound 311, (4S,4'S)-N,N'-(2,2'-dichloro-[1,1'-biphenyl]-3,3'-diyl)bis(4-(dimethylamino)-4,5,6,7-tetrahydropyrazolo[1,5-a]pyridine-2-carboxamide)], with less than 10 nM; and `CN[C@H]1CCCn2nc(C(=O)Nc3cccc(-c4cccc(NC(=O)c5cc6n(n5)CCC[C@@H]6NC)c4C)c3C)cc21` [Compound 312, (4S,4'S)-N,N'-(2,2'-dimethyl-[1,1'-biphenyl]-3,3'-diyl)bis(4-(methylamino)-4,5,6,7-tetrahydropyrazolo[1,5-a]pyridine-2-carboxamide)], with less than 10 nM.

As for `CN(C)[C@H]1CCCn2nc(C(=O)Nc3cccc(-c4cccc(NC(=O)c5cc6n(n5)CCC[C@@H]6NCCO)c4Cl)c3Cl)cc21` [Compound 313, (S)-N-(2,2'-dichloro-3'-((S)-4-((2-hydroxyethyl)amino)-4,5,6,7-tetrahydropyrazolo[1,5-a]pyridine-2-carboxamido)-[1,1'-biphenyl]-3-yl)-4-(dimethylamino)-4,5,6,7-tetrahydropyrazolo[1,5-a]pyridine-2-carboxamide], the IC50 is less than 10 nM. As to `CN(C)[C@H]1CCCn2nc(C(=O)Nc3cccc(-c4cccc(NC(=O)c5cc6n(n5)CCC[C@@H]6NCC(=O)O)c4Cl)c3Cl)cc21` [Compound 314, 2-(((S)-2-((2,2'-dichloro-3'-((S)-4-(dimethylamino)-4,5,6,7-tetrahydropyrazolo[1,5-a]pyridine-2-carboxamido)-[1,1'-biphenyl]-3-yl)carbamoyl)-4,5,6,7-tetrahydropyrazolo[1,5-a]pyridin-4-yl)amino)acetic acid], the IC50 was less than 10 nM. Consider `O=C(O)CN[C@H]1CCCn2nc(C(=O)Nc3cccc(-c4cccc(NC(=O)c5cc6n(n5)CCC[C@@H]6NCCO)c4Cl)c3Cl)cc21` [Compound 315, 2-(((S)-2-((2,2'-dichloro-3'-((S)-4-((2-hydroxyethyl)amino)-4,5,6,7-tetrahydropyrazolo[1,5-a]pyridine-2-carboxamido)-[1,1'-biphenyl]-3-yl)carbamoyl)-4,5,6,7-tetrahydropyrazolo[1,5-a]pyridin-4-yl)amino)acetic acid], for which the IC50 was less than 10 nM. As for `O=C(Nc1cccc(-c2cccc(NC(=O)c3cc4n(n3)CCC[C@@H]4NCCO)c2Cl)c1Cl)c1cc2n(n1)CCC[C@@H]2NCCO` [Compound 316, (4S,4'S)-N,N'-(2,2'-dichloro-[1,1'-biphenyl]-3,3'-diyl)bis(4-((2-hydroxyethyl)amino)-4,5,6,7-tetrahydropyrazolo[1,5-a]pyridine-2-carboxamide)], the IC50 is less than 10 nM.

In the case of `O=C(O)CN[C@H]1CCCn2nc(C(=O)Nc3cccc(-c4cccc(NC(=O)c5cc6n(n5)CCC[C@@H]6NCC(=O)O)c4Cl)c3Cl)cc21` [Compound 317, 2,2'-(((4S,4'S)-2,2'-(((2,2'-dichloro-[1,1'-biphenyl]-3,3'-diyl)bis(azanediyl))bis(carbonyl))bis(4,5,6,7-tetrahydropyrazolo[1,5-a]pyridine-4,2-diyl))bis(azanediyl))diacetic acid], the IC50 is less than 10 nM. On to `O=C(Nc1cccc(-c2cccc(Nc3nccc4cc(CN5CC[C@@H](O)C5)cnc34)c2Cl)c1Cl)c1cc2n(n1)CCCN2CCO` [Compound 322, (R)-N-(2,2'-dichloro-3'-((3-((3-hydroxypyrrolidin-1-yl)methyl)-1,7-naphthyridin-8-yl)amino)-[1,1'-biphenyl]-3-yl)-4-(2-hydroxyethyl)-4,5,6,7-tetrahydropyrazolo[1,5-a]pyrimidine-2-carboxamide], for which the IC50 is 10 to 100 nM. Turning to `O=C(Nc1cccc(-c2cccc(Nc3nccc4cc(CN5CC[C@@H](O)C5)cnc34)c2Cl)c1Cl)c1cc2n(n1)CCN(CCO)C2` [Compound 323, (R)-N-(2,2'-dichloro-3'-((3-((3-hydroxypyrrolidin-1-yl)methyl)-1,7-naphthyridin-8-yl)amino)-[1,1-biphenyl]-3-yl)-5-(2-hydroxyethyl)-4,5,6,7-tetrahydropyrazolo[1,5-a]pyrazine-2-carboxamide], the IC50 lay in the range of 10 to 100 nM. Then `O=C(O)CN1CCn2nc(C(=O)Nc3cccc(-c4cccc(Nc5nccc6cc(CN7CC[C@@H](O)C7)cnc56)c4Cl)c3Cl)cc2C1` [Compound 324, (R)-2-(2-((2,2'-dichloro-3'-((3-((3-hydroxypyrrolidin-1-yl)methyl)-1,7-naphthyridin-8-yl)amino)-[1,1'-biphenyl]-3-yl)carbamoyl)-6,7-dihydropyrazolo[1,5-a]pyrazin-5(4H)-yl)acetic acid], with less than 10 nM. For the compound `Cc1c(NC(=O)c2ccc(CN3CC[C@@H](O)C3)cn2)cccc1-c1cccc(NC(=O)c2cc3n(n2)CCN(CCO)C3)c1C` [Compound 325, (R)-5-(2-hydroxyethyl)-N-(3'-(5-((3-hydroxypyrrolidin-1-yl)methyl)picolinamido)-2,2'-dimethyl-[1,1'-biphenyl]-3-yl)-4,5,6,7-tetrahydropyrazolo[1,5-a]pyrazine-2-carboxamide], the IC50 is less than 10 nM. For `Cc1c(NC(=O)c2ccc(CN3CC[C@@H](O)C3)cn2)cccc1-c1cccc(NC(=O)c2cc3n(n2)CCN(CC(=O)O)C3)c1C` [Compound 326, (R)-2-(2-((3'-(5-((3-hydroxypyrrolidin-1-yl)methyl)picolinamido)-2,2'-dimethyl-[1,1'-biphenyl]-3-yl)carbamoyl)-6,7-dihydropyrazolo[1,5-a]pyrazin-5(4H)-yl)acetic acid], the IC50 was less than 10 nM. For `Cc1c(NC(=O)c2cc3n(n2)CCN(CCO)C3)cccc1-c1cccc(Nc2nc(C(F)F)nc3cc(CN4CC[C@@H](O)C4)cnc23)c1C` [Compound 327, (R)-N-(3'-((2-(difluoromethyl)-7-((3-hydroxypyrrolidin-1-yl)methyl)pyrido[3,2-d]pyrimidin-4-yl)amino)-2,2'-dimethyl-[1,1'-biphenyl]-3-yl)-5-(2-hydroxyethyl)-4,5,6,7-tetrahydropyrazolo[1,5-a]pyrazine-2-carboxamide], the IC50 was less than 10 nM. With `Cc1c(NC(=O)c2cc3n(n2)CCN(CC(=O)O)C3)cccc1-c1cccc(Nc2nc(C(F)F)nc3cc(CN4CC[C@@H](O)C4)cnc23)c1C` [Compound 328, (R)-2-(2-((3'-((2-(difluoromethyl)-7-((3-hydroxypyrrolidin-1-yl)methyl)pyrido[3,2-d]pyrimidin-4-yl)amino)-2,2'-dimethyl-[1,1'-biphenyl]-3-yl)carbamoyl)-6,7-dihydropyrazolo[1,5-a]pyrazin-5(4H)-yl)acetic acid], the IC50 was less than 10 nM.

A word on the IC50: it is the point on the concentration scale where inhibition reaches its midpoint.
